Source: article PMC10850145, “Hormonal steroids induce multidrug resistance and stress response genes in Neisseria gonorrhoeae by binding to MtrR” (Nature Communications, 2024)
Several values for one entry are separate records, joined by “and”; a condition that tells them apart may be missing. Identical values can stand only once.

Experiments:
[1] = tested on: FA19-rpoH-lacZ; test: Gonococcal growth in liquid culture (GC broth) with hormones (Fig S7)
[2] = biological target: T1, MtrR (Neisseria gonorrhoeae, UniProt P39897); test: Isothermal titration calorimetry, ligand binding to MtrR WT; conditions: ITC
T1 construct: Hexa-histidine tag with TEV protease cleavage site (N, cleaved yes); made in house; host or cells: E. coli Rosetta Gami B(DE3) pLysS
T1 sequence (P39897 whole entry): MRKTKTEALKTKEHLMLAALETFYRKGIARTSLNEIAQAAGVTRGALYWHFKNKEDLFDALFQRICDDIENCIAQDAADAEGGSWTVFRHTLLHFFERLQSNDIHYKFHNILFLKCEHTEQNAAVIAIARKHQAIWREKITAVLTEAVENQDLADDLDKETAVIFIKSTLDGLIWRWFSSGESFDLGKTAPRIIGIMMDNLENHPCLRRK

[3] = biological target: T2, MtrR binding to mtrCDE operator (21mer) (Neisseria gonorrhoeae, UniProt P39897); test: Fluorescence polarization based DNA binding assay, mtrCDE operator; conditions: mtrCDE 21mer + 125 µM steroid
T2 construct: Hexa-histidine tag with TEV protease cleavage site (N, cleaved yes); made in house; host or cells: E. coli Rosetta Gami B(DE3) pLysS
T2 sequence (P39897 whole entry): as above
Description: (§1) Fluorescence polarization based-DNA binding data were collected using a Panvera Beacon 2000 fluorescence polarization system (Invitrogen) and analyzed with Prism (Graphpad Software 9, 10). Purified MtrR was buffer exchanged into “DNA” binding buffer (150 mM NaCl, 20 mM Tris-HCl pH 7.5, 2.5% glycerol, 1 mM TCEP). […] The reported oligoduplexes containing the rpoH and mtrCDE binding site differ in lengths, 27mer and 21mer, respectively[17],[21]. […] BSA and dI-dC are included as carriers and to control for nonspecific DNA binding. Samples were excited at 490 nm and polarized emissions measured at 530 nm. Controls were run with no protein (DNA ± methanol, hormonal steroids) to ensure that millipolarization values were not affected by experimental conditions alone. The binding affinity of protein for DNA was determined using the following equation: P = Pf + (Pb – Pf) [M] / (Kd + [M]) where P is the measured polarization, Pf is the polarization of free DNA, Pb is the polarization of the completely bound DNA, Kd is the equilibrium dissociation constant, and M is the concentration of protein. Pb and Kd were determined by nonlinear least-squares analysis. At least three independent experimental measurements were averaged for each reported binding constant.

[4] = biological target: T3, MtrR binding to rpoH operator (27mer) (Neisseria gonorrhoeae, UniProt P39897); test: Fluorescence polarization based DNA binding assay, rpoH operator; conditions: rpoH 27mer + 125 µM steroid
T3 construct: Hexa-histidine tag with TEV protease cleavage site (N, cleaved yes); made in house; host or cells: E. coli Rosetta Gami B(DE3) pLysS
T3 sequence (P39897 whole entry): as above
Description: as §1

**Q.** C[C@]12CC[C@H]3[C@@H](CCC4=CC(=O)CC[C@@]43C)[C@@H]1CC[C@@H]2O [Testosterone, testosterone] was tested. Which “growth curve reading after BLANKING (testosterone run)” value (“growth curve reading after BLANKING” below) ([1]; 6.03 hr, 100 µM) did it give?
**A.** Its value is 0.177.

**Q.** What about the “growth curve reading, raw replicates (testosterone run)” value (“growth curve reading, raw replicates” for short) ([1]; 6.03 hr, 100 µM) of the same compound?
**A.** Its value is 0.198.

**Q.** And the “growth curve reading after BLANKING” value ([1]; 7.03 hr, 0.1 µM)?
**A.** The value was 0.177.

**Q.** And the “growth curve reading, raw replicates” value ([1]; 7.03 hr, 0.1 µM)?
**A.** The value was 0.195.

**Q.** What about the “growth curve reading after BLANKING” value ([1]; 7.03 hr, 1 µM) of the same compound?
**A.** The value was 0.182.

**Q.** And the “growth curve reading, raw replicates” value ([1]; 7.03 hr, 1 µM)?
**A.** Its value is 0.210.

**Q.** What about the “growth curve reading after BLANKING” value ([1]; 7.03 hr, 10 µM) of the same compound?
**A.** The value was 0.178.

**Q.** And the “growth curve reading, raw replicates” value ([1]; 7.03 hr, 10 µM)?
**A.** The value was 0.205.

**Q.** And the “growth curve reading, raw replicates” value ([1]; 7.03 hr, 100 µM)?
**A.** Its value is 0.250.

**Q.** What about the “growth curve reading after BLANKING” value ([1]; 7.3 hr, 100 µM) of the same compound?
**A.** The value was 0.226.

**Q.** What about the “growth curve reading, raw replicates” value ([1]; 7.3 hr, 100 µM) of the same compound?
**A.** Its value is 0.266 and 0.272.

**Q.** What about the “growth curve reading after BLANKING” value ([1]; […], 0.1 µM) of the same compound?
**A.** Its value is 0.028.

**Q.** And the “growth curve reading after BLANKING” value ([1]; […], 1 µM)?
**A.** Its value is 0.027.

**Q.** What about the “growth curve reading after BLANKING” value ([1]; […], 10 µM) of the same compound?
**A.** The value was 0.026.

**Q.** What about the “growth curve reading after BLANKING” value ([1]; […], 50 µM) of the same compound?
**A.** Its value is 0.026.

**Q.** And the “growth curve reading after BLANKING” value ([1]; […], 100 µM)?
**A.** Its value is 0.025.

**Q.** What about the “binding stoichiometry N (ligand per MtrR)” value [2] of the same compound?
**A.** Its value is ~ 1.

**Q.** What about the “binding stoichiometry N (ligand per MtrR)” value ([2]; listed as TES) of the same compound?
**A.** The value was “one molecule of steroid per MtrR monomer”.

**Q.** What about the Kd ([2]; equilibrium dissociation constant (Kd), MtrR WT, 25 °C, 1% MeOH) of the same compound?
**A.** The Kd was 2.26 µM and ~2.26 µM.

**Q.** And the “fluorescence polarization, MtrR titration” value (shortened to “fluorescence polarization”) ([3]; MtrR WT dimer 0.00 nM)?
**A.** Its value is 0.00 mP.

**Q.** And the “fluorescence polarization” value ([3]; MtrR WT dimer 6.35 nM)?
**A.** The value was 2.61 mP and 1.77 mP and 1.84 mP.

**Q.** What about the “fluorescence polarization” value ([3]; MtrR WT dimer 11.32 nM) of the same compound?
**A.** The value was 5.67 mP and 3.54 mP and 4.04 mP.

**Q.** What about the “fluorescence polarization” value ([3]; MtrR WT dimer 16.21 nM) of the same compound?
**A.** The value was 6.61 mP and 4.54 mP and 5.44 mP.

**Q.** What about the “fluorescence polarization” value ([3]; MtrR WT dimer 35.50 nM) of the same compound?
**A.** The value was 8.17 mP and 7.34 mP and 6.54 mP.

**Q.** What about the “fluorescence polarization” value ([3]; MtrR WT dimer 73.35 nM) of the same compound?
**A.** The value was 11.31 mP and 10.71 mP and 11.67 mP.

**Q.** And the “fluorescence polarization” value ([3]; MtrR WT dimer 110.67 nM)?
**A.** The value was 14.21 mP and 12.44 mP and 14.87 mP.

**Q.** What about the “fluorescence polarization” value ([3]; MtrR WT dimer 147.65 nM) of the same compound?
**A.** Its value is 16.64 mP and 15.47 mP and 17.31 mP.

**Q.** What about the “fluorescence polarization” value ([3]; MtrR WT dimer 220.59 nM) of the same compound?
**A.** The value was 21.64 mP and 18.07 mP and 21.37 mP.

**Q.** And the “fluorescence polarization” value ([3]; MtrR WT dimer 292.55 nM)?
**A.** Its value is 24.51 mP and 22.87 mP and 24.21 mP.

**Q.** And the “fluorescence polarization” value ([3]; MtrR WT dimer 363.86 nM)?
**A.** Its value is 27.31 mP and 26.01 mP and 26.94 mP.

**Q.** What about the “fluorescence polarization” value ([3]; MtrR WT dimer 434.54 nM) of the same compound?
**A.** The value was 29.54 mP and 28.57 mP and 30.57 mP.

**Q.** And the “fluorescence polarization” value ([3]; MtrR WT dimer 504.61 nM)?
**A.** Its value is 32.14 mP and 30.37 mP and 33.41 mP.

**Q.** And the “fluorescence polarization” value ([3]; MtrR WT dimer 574.07 nM)?
**A.** Its value is 34.11 mP and 32.41 mP and 35.04 mP.

**Q.** And the “fluorescence polarization” value ([3]; MtrR WT dimer 711.46 nM)?
**A.** Its value is 38.41 mP and 36.24 mP and 38.57 mP.

**Q.** What about the “fluorescence polarization” value ([3]; MtrR WT dimer 848.00 nM) of the same compound?
**A.** The value was 41.31 mP and 39.27 mP and 42.47 mP.

**Q.** What about the “fluorescence polarization” value ([4]; MtrR WT dimer 0.00 nM) of the same compound?
**A.** Its value is 0.00 mP.

**Q.** What about the “fluorescence polarization” value ([4]; MtrR WT dimer 6.35 nM) of the same compound?
**A.** The value was 2.56 mP and 4.77 mP and 2.79 mP.

**Q.** What about the “fluorescence polarization” value ([4]; MtrR WT dimer 8.85 nM) of the same compound?
**A.** The value was 4.03 mP and 4.45 mP.

**Q.** What about the “fluorescence polarization” value ([4]; MtrR WT dimer 11.32 nM) of the same compound?
**A.** The value was 4.86 mP and 6.47 mP and 4.69 mP.

**Q.** What about the “fluorescence polarization” value ([4]; MtrR WT dimer 16.21 nM) of the same compound?
**A.** Its value is 6.33 mP and 8.37 mP and 6.42 mP.

**Q.** What about the “fluorescence polarization” value ([4]; MtrR WT dimer 25.90 nM) of the same compound?
**A.** The value was 9.43 mP and 8.25 mP.

**Q.** And the “fluorescence polarization” value ([4]; MtrR WT dimer 35.50 nM)?
**A.** The value was 11.51 mP and 12.65 mP and 12.17 mP.

**Q.** And the “fluorescence polarization” value ([4]; MtrR WT dimer 54.52 nM)?
**A.** Its value is 15.46 mP and 15.52 mP.

**Q.** And the “fluorescence polarization” value ([4]; MtrR WT dimer 73.35 nM)?
**A.** Its value is 17.83 mP and 19.00 mP and 18.19 mP.

**Q.** What about the “fluorescence polarization” value ([4]; MtrR WT dimer 110.67 nM) of the same compound?
**A.** Its value is 21.89 mP and 23.20 mP and 21.59 mP.

**Q.** What about the “fluorescence polarization” value ([4]; MtrR WT dimer 147.65 nM) of the same compound?
**A.** The value was 25.36 mP and 23.99 mP.

**Q.** And the “fluorescence polarization” value ([4]; MtrR WT dimer 220.59 nM)?
**A.** The value was 26.93 mP and 29.97 mP and 27.52 mP.

**Q.** And the “fluorescence polarization” value ([4]; MtrR WT dimer 292.55 nM)?
**A.** The value was 30.66 mP and 32.37 mP and 31.12 mP.

**Q.** What about the “fluorescence polarization” value ([4]; MtrR WT dimer 363.86 nM) of the same compound?
**A.** Its value is 32.43 mP and 34.37 mP and 33.42 mP.

**Q.** What about the “fluorescence polarization” value ([4]; MtrR WT dimer 434.54 nM) of the same compound?
**A.** The value was 34.93 mP and 38.17 mP and 35.29 mP.

**Q.** What about the “fluorescence polarization” value ([4]; MtrR WT dimer 504.61 nM) of the same compound?
**A.** The value was 36.76 mP and 39.37 mP and 37.09 mP.

**Q.** What about the “fluorescence polarization” value ([4]; MtrR WT dimer 574.07 nM) of the same compound?
**A.** The value was 38.43 mP and 40.67 mP and 39.72 mP.
